Assay results taken from patent publication US20240246964A1 (Arbutus Biopharma Corporation, priority 2021, published 2024).
pEC50: −log10 of the molar value. One block for each compound: values may come before it.

Target: human PD-L1 (Homo sapiens (Human), UniProt Q9NZQ7)
Assay: T cell activation luciferase reporter cell culture system (T Cell Activation Assay)
Format: cell-based
Conditions: luciferase reporter assay; PD-L1 aAPC/CHO-K1 cells with PD-1 effector Jurkat T cells

Sequence of human PD-L1 (Q9NZQ7 19-290): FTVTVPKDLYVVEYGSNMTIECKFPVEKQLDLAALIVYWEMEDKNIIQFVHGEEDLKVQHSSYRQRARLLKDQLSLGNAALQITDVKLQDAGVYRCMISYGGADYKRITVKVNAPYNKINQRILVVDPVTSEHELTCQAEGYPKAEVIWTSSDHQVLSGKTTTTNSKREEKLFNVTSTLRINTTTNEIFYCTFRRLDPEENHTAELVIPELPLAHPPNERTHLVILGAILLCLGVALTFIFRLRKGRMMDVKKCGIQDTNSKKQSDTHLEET

SMILES: COc1cc(-c2nccc(-c3cccc(-c4ccc(CNC[C@H](C)O)c(OC)n4)c3C(F)(F)F)c2Cl)ccc1CNC[C@H](C)O [Example 580, (S)-1-(((6-(3-(3-Chloro-2-(4-((((S)-2-hydroxypropyl)amino)methyl)-3-methoxyphenyl)pyridin-4-yl)-2-(trifluoromethyl)phenyl)-2-methoxypyridin-3-yl)methyl)amino)propan-2-ol]
pEC50: ≤ 5.00

SMILES: COc1cc(-c2ncnc(-c3cccc(-c4ccc(CNCCO)c(OC)n4)c3Cl)c2Cl)ccc1CNCCO [Example 581, 2-(((6-(2-chloro-3-(5-chloro-6-(4-(((2-hydroxyethyl)amino)methyl)-3-methoxyphenyl)pyrimidin-4-yl)phenyl)-2-methoxypyridin-3-yl)methyl)amino)ethan-1-ol]
pEC50: 7.37

SMILES: CCOc1cc(-c2nccc(-c3cccc(-c4ccc(CNC5CCN(C(C)=O)CC5)c(OC)n4)c3Cl)c2Cl)cn2nc(CN3CC4(CNC(=O)C4)C3)nc12 [Example 586, 2-((6-(4-(3-(5-(((1-Acetylpiperidin-4-yl)amino)methyl)-6-methoxypyridin-2-yl)-2-chlorophenyl)-3-chloropyridin-2-yl)-8-ethoxy-[1,2,4]triazolo[1,5-a]pyridin-2-yl)methyl)-2,6-diazaspiro[3.4]octan-7-one]
pEC50: 6.69

SMILES: COc1cc(-c2ncnc(-c3cccc(-c4ccc(CN[C@H]5C[C@@H](O)C5)c(OC)n4)c3Cl)c2Cl)ccc1CN[C@H]1C[C@@H](O)C1 [Example 592, (1s,3s)-3-(((6-(2-Chloro-3-(5-chloro-6-(4-((((1s,3s)-3-hydroxycyclobutyl)amino)methyl)-3-methoxyphenyl)pyrimidin-4-yl)phenyl)-2-methoxypyridin-3-yl)methyl)amino)cyclobutan-1-ol]
pEC50: 7.06

SMILES: COc1nc(-c2cccc(-c3ccnc(-c4ccc5c(c4)S(=O)(=O)CCN(C[C@H](C)O)C5)c3Cl)c2Cl)ccc1CNC[C@@H]1CCC(=O)N1 [Example 611, (S)-5-((((6-(2-Chloro-3-(3-chloro-2-(4-((S)-2-hydroxypropyl)-1,1-dioxido-2,3,4,5-tetrahydrobenzo[f][1,4]thiazepin-8-yl)pyridin-4-yl)phenyl)-2-methoxypyridin-3-yl)methyl)amino)methyl)pyrrolidin-2-one]
pEC50: ≤ 5.00

SMILES: CNCc1ccc(-c2nccc(-c3cccc(-c4ccc(CNC)c(OC)n4)c3C(F)(F)F)c2Cl)cc1OC [Example 613, 1-(6-(3-(3-Chloro-2-(3-methoxy-4-((methylamino)methyl)phenyl)pyridin-4-yl)-2-(trifluoromethyl)phenyl)-2-methoxypyridin-3-yl)-N-methylmethanamine]
pEC50: ≤ 5.00

SMILES: COCCNCc1ccc(-c2nccc(-c3cccc(-c4ccc(CNCCOC)c(OC)n4)c3C(F)(F)F)c2Cl)cc1OC [Example 614, N-((6-(3-(3-Chloro-2-(3-methoxy-4-(((2-methoxyethyl)amino)methyl)phenyl)pyridin-4-yl)-2-(trifluoromethyl)phenyl)-2-methoxypyridin-3-yl)methyl)-2-methoxyethan-1-amine]
pEC50: ≤ 5.00

SMILES: COCCC(=O)N1CCC(NCc2ccc(-c3cccc(-c4ccnc(-c5ccc(CN6CCC(O)CC6)c(OC)c5)c4Cl)c3Cl)nc2OC)CC1 [Example 616, 1-(4-(((6-(2-Chloro-3-(3-chloro-2-(4-((4-hydroxypiperidin-1-yl)methyl)-3-methoxyphenyl)pyridin-4-yl)phenyl)-2-methoxypyridin-3-yl)methyl)amino)piperidin-1-yl)-3-methoxypropan-1-one]
pEC50: 7.44

SMILES: COc1nc(-c2cccc(-c3ccnc(-c4ccc(CNC[C@@H]5CCC(=O)N5)c(OC(F)F)c4)c3Cl)c2Cl)ccc1CNC[C@@H]1CCC(=O)N1 [Example 617, (S)-5-((((6-(2-Chloro-3-(3-chloro-2-(3-(difluoromethoxy)-4-(((((S)-5-oxopyrrolidin-2-yl)methyl)amino)methyl)phenyl)pyridin-4-yl)phenyl)-2-methoxypyridin-3-yl)methyl)amino)methyl)pyrrolidin-2-one]
pEC50: 7.41

Continued, values first:

pEC50: ≤ 5.00
SMILES: COc1cc(-c2nccc(-c3cccc(-c4ccc(CN5CC6(C5)CN(C(C)=O)C6)c(OC)n4)c3C(F)(F)F)c2Cl)ccc1CN1CC2(C1)CN(C(C)=O)C2 [Example 577, 1-(6-((6-(3-(2-(4-((6-Acetyl-2,6-diazaspiro[3.3]heptan-2-yl)methyl)-3-methoxyphenyl)-3-chloropyridin-4-yl)-2-(trifluoromethyl)phenyl)-2-methoxypyridin-3-yl)methyl)-2,6-diazaspiro[3.3]heptan-2-yl)ethan-1-one]

pEC50: ≤ 5.00
SMILES: CCOc1cc(-c2nccc(-c3cccc(-c4ccc(CNC5CCN(C(C)=O)CC5)c(OC)n4)c3Cl)c2Cl)cn2nc(CN[C@H]3CC[C@H](O)CC3)nc12 [Example 583, 1-(4-(((6-(2-Chloro-3-(3-chloro-2-(8-ethoxy-2-((((1r,4r)-4-hydroxycyclohexyl)amino)methyl)-[1,2,4]triazolo[1,5-a]pyridin-6-yl)pyridin-4-yl)phenyl)-2-methoxypyridin-3-yl)methyl)amino)piperidin-1-yl)ethan-1-one]

pEC50: ≤ 5.00
SMILES: CCOc1cc(-c2nccc(-c3cccc(-c4ccc(CNC5CCN(C(C)=O)CC5)c(OC)n4)c3Cl)c2Cl)cn2nc(CNC3CCN(C(C)=O)CC3)nc12 [Example 585, 1-(4-(((6-(4-(3-(5-(((1-Acetylpiperidin-4-yl)amino)methyl)-6-methoxypyridin-2-yl)-2-chlorophenyl)-3-chloropyridin-2-yl)-8-ethoxy-[1,2,4]triazolo[1,5-a]pyridin-2-yl)methyl)amino)piperidin-1-yl)ethan-1-one]

pEC50: ≤ 5.00
SMILES: COc1cc(-c2nccc(-c3cccc(-c4ccc(CN[C@H]5CC[C@H](O)CC5)c(OC)n4)c3C(F)(F)F)c2Cl)ccc1CN[C@H]1CC[C@H](O)CC1 [Example 588, (1r,4r)-4-(((6-(3-(3-Chloro-2-(4-((((1r,4r)-4-hydroxycyclohexyl)amino)methyl)-3-methoxyphenyl)pyridin-4-yl)-2-(trifluoromethyl)phenyl)-2-methoxypyridin-3-yl)methyl)amino)cyclohexan-1-ol]

pEC50: ≤ 5.00
SMILES: COc1cc(-c2ncnc(-c3cccc(-c4ccc(CN5CC6(C5)CN(C(C)=O)C6)c(OC)n4)c3Cl)c2Cl)ccc1CN1CC2(C1)CN(C(C)=O)C2 [Example 589, 1-(6-((6-(3-(6-(4-((6-Acetyl-2,6-diazaspiro[3.3]heptan-2-yl)methyl)-3-methoxyphenyl)-5-chloropyrimidin-4-yl)-2-chlorophenyl)-2-methoxypyridin-3-yl)methyl)-2,6-diazaspiro[3.3]heptan-2-yl)ethan-1-one]

pEC50: 5.92
SMILES: COc1cc(-c2nccc(-c3cccc(NC(=O)c4ccc(CN5CC6(CNC(=O)C6)C5)cn4)c3C)c2Cl)ccc1CN1CC2(CNC(=O)C2)C1 [Example 590, N-(3-(3-Chloro-2-(3-methoxy-4-((7-oxo-2,6-diazaspiro[3.4]octan-2-yl)methyl)phenyl)pyridin-4-yl)-2-methylphenyl)-5-((7-oxo-2,6-diazaspiro[3.4]octan-2-yl)methyl)picolinamide]

pEC50: 6.46
SMILES: COc1nc(-c2cccc(-c3ccnc(-c4cc(OC)c5nc(CN[C@H]6C[C@](C)(O)C6)nn5c4)c3Cl)c2Cl)ccc1CNC1CCN(C(C)=O)CC1 [Example 596, 1-(4-(((6-(2-Chloro-3-(3-chloro-2-(2-((((1r,3r)-3-hydroxy-3-methylcyclobutyl)amino)methyl)-8-methoxy-[1,2,4]triazolo[1,5-a]pyridin-6-yl)pyridin-4-yl)phenyl)-2-methoxypyridin-3-yl)methyl)amino)piperidin-1-yl)ethan-1-one]

pEC50: 7.79
SMILES: COc1nc(-c2cccc(-c3ccnc(-c4ccc(CN5CC6(CNC(=O)C6)C5)c(OC(F)F)c4)c3Cl)c2Cl)ccc1CN1CC2(CNC(=O)C2)C1 [Example 597, 2-((6-(2-Chloro-3-(3-chloro-2-(3-(difluoromethoxy)-4-((7-oxo-2,6-diazaspiro[3.4]octan-2-yl)methyl)phenyl)pyridin-4-yl)phenyl)-2-methoxypyridin-3-yl)methyl)-2,6-diazaspiro[3.4]octan-7-one]

pEC50: 7.43
SMILES: COc1nc(-c2cccc(-c3ccnc(-c4ccc(CN5CC6(C5)CN(C(C)=O)C6)c(OC(F)F)c4)c3Cl)c2Cl)ccc1CN1CC2(C1)CN(C(C)=O)C2 [Example 598, 1-(6-((6-(3-(2-(4-((6-Acetyl-2,6-diazaspiro[3.3]heptan-2-yl)methyl)-3-(difluoromethoxy)phenyl)-3-chloropyridin-4-yl)-2-chlorophenyl)-2-methoxypyridin-3-yl)methyl)-2,6-diazaspiro[3.3]heptan-2-yl)ethan-1-one]

pEC50: ≤ 5.00
SMILES: COc1cc(-c2nccc(-c3cccc(-c4ccc(CNC5CC6(COC6)C5)c(OC)n4)c3C(F)(F)F)c2Cl)ccc1CNC1CC2(COC2)C1 (stereo not shown) [Example 604, N-((6-(3-(2-(4-(((2-Oxaspiro[3.3]heptan-6-yl)amino)methyl)-3-methoxyphenyl)-3-chloropyridin-4-yl)-2-(trifluoromethyl)phenyl)-2-methoxypyridin-3-yl)methyl)-2-oxaspiro[3.3]heptan-6-amine]

pEC50: 7.74
SMILES: COCCC(=O)N1CCC(NCc2ccc(-c3cccc(-c4ccnc(-c5ccc(CNC6CCN(C(C)=O)CC6)c(OC)c5)c4Cl)c3Cl)nc2OC)CC1 [Example 607, 1-(4-(((6-(3-(2-(4-(((1-Acetylpiperidin-4-yl)amino)methyl)-3-methoxyphenyl)-3-chloropyridin-4-yl)-2-chlorophenyl)-2-methoxypyridin-3-yl)methyl)amino)piperidin-1-yl)-3-methoxypropan-1-one]

pEC50: 7.65
SMILES: COc1nc(-c2ccnc(-c3cccc4c3CC[C@@H]4Oc3nc(OC)c(CNC4CCOCC4)cc3C(F)(F)F)c2Cl)ccc1CNC[C@@H]1CCC(=O)N1 [Example 608, (S)-5-((((3′-Chloro-6-methoxy-2′-((S)-1-((6-methoxy-5-(((tetrahydro-2H-pyran-4-yl)amino)methyl)-3-(trifluoromethyl)pyridin-2-yl)oxy)-2,3-dihydro-1H-inden-4-yl)-[2,4′-bipyridin]-5-yl)methyl)amino)methyl)pyrrolidin-2-one]

pEC50: ≤ 5.00
SMILES: COc1cc(-c2nccc(-c3cccc(-c4ccc(CNCCO)c(OC)n4)c3C(F)(F)F)c2Cl)ccc1CNCCO [Example 612, 2-(((6-(3-(3-Chloro-2-(4-(((2-hydroxyethyl)amino)methyl)-3-methoxyphenyl)pyridin-4-yl)-2-(trifluoromethyl)phenyl)-2-methoxypyridin-3-yl)methyl)amino)ethan-1-ol]
